Experimental data from BindingDB's records for doi:10.1016/s0960-894x(02)00078-1 (Xenova, 2002).

The compounds below were run against Plasminogen activator inhibitor 1 (Homo sapiens, UniProt P05121) (assay: ChEBML_222791).
From the text: Inhibitory activity against human plasminogen activator inhibitor-1 (PAI-1) evaluated by chromogenic assay.

Plasminogen activator inhibitor 1, sequence (P05121 whole entry): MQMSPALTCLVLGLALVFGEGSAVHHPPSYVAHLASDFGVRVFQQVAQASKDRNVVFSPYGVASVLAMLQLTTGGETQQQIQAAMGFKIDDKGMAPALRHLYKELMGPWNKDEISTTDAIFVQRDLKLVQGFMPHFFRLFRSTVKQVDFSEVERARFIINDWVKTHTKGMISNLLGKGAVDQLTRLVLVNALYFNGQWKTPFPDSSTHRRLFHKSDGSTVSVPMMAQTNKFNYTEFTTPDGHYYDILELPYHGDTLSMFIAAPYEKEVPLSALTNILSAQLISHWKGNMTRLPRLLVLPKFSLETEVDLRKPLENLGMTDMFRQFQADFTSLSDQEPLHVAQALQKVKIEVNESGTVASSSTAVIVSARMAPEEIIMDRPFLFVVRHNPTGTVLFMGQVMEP

SMILES | IC50 [µM]
O=C(O)CCCCCCCOc1ccc(NC(=O)C2C(=O)CN(c3ccccc3Cl)C2=O)cc1 (centres undefined) [8-(4-{[1-(2-Chloro-phenyl)-4-hydroxy-2-oxo-2,5-dihydro-1H-pyrrole-3-carbonyl]-amino}-phenoxy)-octanoic acid] | > 50
CC(=O)Nc1ccc(N2CC(=O)C(C(=O)Nc3ccc(OCCCCCCCC(=O)O)cc3)C2=O)cc1 (centres undefined) [8-(4-{[1-(4-Acetylamino-phenyl)-4-hydroxy-2-oxo-2,5-dihydro-1H-pyrrole-3-carbonyl]-amino}-phenoxy)-octanoic acid] | > 50
COC(=O)CCCCCCCOc1ccc(NC(=O)C2C(=O)CN(c3ccc(Cl)cc3)C2=O)cc1 (centres undefined) [8-(4-{[1-(4-Chloro-phenyl)-4-hydroxy-2-oxo-2,5-dihydro-1H-pyrrole-3-carbonyl]-amino}-phenoxy)-octanoic acid methyl ester] | > 50
COc1ccccc1N1CC(=O)C(C(=O)Nc2ccc(OCCCCCCCC(=O)O)cc2)C1=O (centres undefined) [8-(4-{[4-Hydroxy-1-(2-methoxy-phenyl)-2-oxo-2,5-dihydro-1H-pyrrole-3-carbonyl]-amino}-phenoxy)-octanoic acid] | > 50
O=C(O)CCCCCCCOc1ccc(NC(=O)C2C(=O)CN(c3ccc(N4CCOCC4)cc3)C2=O)cc1 (centres undefined) [8-(4-{[4-Hydroxy-1-(4-morpholin-4-yl-phenyl)-2-oxo-2,5-dihydro-1H-pyrrole-3-carbonyl]-amino}-phenoxy)-octanoic acid] | > 50
O=C(O)CCCCCCCOc1ccc(NC(=O)C2C(=O)NC(Cc3ccc(O)cc3)C2=O)cc1 (centres undefined) [8-(4-{[4-Hydroxy-5-(4-hydroxy-benzyl)-2-oxo-2,5-dihydro-1H-pyrrole-3-carbonyl]-amino}-phenoxy)-octanoic acid] | > 50

Next, values leading:

IC50 [µM] | SMILES
> 50 | O=C(O)CCCCCCCOc1ccc(NC(=O)C2C(=O)CN(Cc3ccccc3)C2=O)cc1 (centres undefined) [8-{4-[(1-Benzyl-4-hydroxy-2-oxo-2,5-dihydro-1H-pyrrole-3-carbonyl)-amino]-phenoxy}-octanoic acid]
> 50 | O=C(O)CCCCCCCOc1ccc(NC(=O)C2C(=O)CN(c3cccc4ccccc34)C2=O)cc1 (centres undefined) [8-{4-[(4-Hydroxy-1-naphthalen-1-yl-2-oxo-2,5-dihydro-1H-pyrrole-3-carbonyl)-amino]-phenoxy}-octanoic acid]
> 50 | CC1C(=O)C(C(=O)Nc2ccc(OCCCCCCCC(=O)O)cc2)C(=O)N1c1ccccc1 (centres undefined) [8-{4-[(4-Hydroxy-5-methyl-2-oxo-1-phenyl-2,5-dihydro-1H-pyrrole-3-carbonyl)-amino]-phenoxy}-octanoic acid]
